Reference: ChEMBL document CHEMBL1201862, “PubChem BioAssay data set” (2004)
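Assay format: 96-well plates, 48-hour exposure. The concentration for 50% growth inhibition is given as GI50.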 Calls of active or inactive are those of the source. Cut-off read from the data, not from the text of the source: active = GI50 up to about 1.1 µM and inactive = higher.

Assays:
Experiment in all cases: growth of human tumour cells (NCI), 48 h
SK-MEL-5 = test system: SK-MEL-5
DU-145 = test system: DU-145
NCI-H522 = test system: NCI-H522
MDA-MB-231 = test system: MDA-MB-231
BT-549 = test system: BT-549
MCF7 = test system: MCF7
SR = test system: SR
MDA-MB-435 = test system: MDA-MB-435
T47D = test system: T47D
RXF 631 = test system: RXF 631
CAKI-1 = test system: CAKI-1
SNB-78 = test system: SNB-78
ACHN = test system: ACHN
DMS-114 = test system: DMS-114
DLD-1 = test system: DLD-1
Malme-3M = test system: Malme-3M
SK-MEL-2 = test system: SK-MEL-2
LXFL 529 = test system: LXFL 529
HOP-18 = test system: HOP-18
NCI-H226 = test system: NCI-H226

Measured: GI50

COc1cccc(N2C(=O)CSC2c2c[nH]c3ccccc23)c1 (stereo not given)
inactive: SK-MEL-5 > 100 µM | DU-145 > 100 µM | NCI-H522 97.9 µM | MDA-MB-231 > 100 µM | BT-549 > 100 µM | MCF7 > 100 µM | SR > 100 µM | MDA-MB-435 > 100 µM | T47D > 100 µM

Cc1ccc(NC(=O)CC/C(CC(=O)C(C)(C)C)=N/NC(=O)c2cc3ccccc3cc2O)cc1C
inactive: RXF 631 44.1 µM | CAKI-1 > 100 µM | SNB-78 60.5 µM | ACHN 31 µM | DMS-114 31.6 µM | DLD-1 30 µM | Malme-3M 35.2 µM | SK-MEL-2 32.4 µM | LXFL 529 35.2 µM | HOP-18 32.1 µM | NCI-H226 37.2 µM
